# Reference: ChEMBL document CHEMBL1150105, “Polytolypin, a new antifungal triterpenoid from the coprophilous fungus Polytolypa hystricis” (1995)
# Active and inactive are the calls of the source. The calls are words filed in the database; no cut-off is given here.
# Key:
# Ascobolus = experiment: Antifungal activity against Ascobolus furfuraceus NRRL 6460 at 100 ug/disk by standard disk assay; assay type: functional
# Candida albicans = experiment: Antifungal activity against Candida albicans ATCC 14053 at 80 ug /disk by standard disk assay; assay type: functional; conditions: read-out: IZ
SMILES,inhibition at 100 µg/disc (Ascobolus),Activity (Ascobolus),zone of inhibition at 80 µg/disc (Candida albicans)
CC(=O)CC1(O)C(=O)c2cc3c(c4c(C)cc(O)c(c24)C1=O)OC(C)C3(C)C (centres undefined),47%,,
Cc1cc(O)c2c3c(cc4c(c13)OC(C)C4(C)C)C(=O)/C(=N\C1C(=O)c3cc4c(c5c(C)cc(O)c(c35)C1=O)OC(C)C4(C)C)C2=O (centres undefined),,inactive,
CC(C)[C@H]1CC[C@@H]2[C@]1(C)CC[C@]1(C)C3=CC[C@H]4[C@](C)(C(=O)O)[C@@H](O)[C@H](O)[C@@H](O)[C@]4(C(=O)O)[C@H]3CC[C@@]21C [POLYTOLYPIN],47%,,11 mm
